The target of experiment [1] is T1, Phosphatidylinositol 4,5-bisphosphate 3-kinase catalytic subunit delta isoform (Homo sapiens, UniProt O00329).
T1 sequence (O00329 whole entry): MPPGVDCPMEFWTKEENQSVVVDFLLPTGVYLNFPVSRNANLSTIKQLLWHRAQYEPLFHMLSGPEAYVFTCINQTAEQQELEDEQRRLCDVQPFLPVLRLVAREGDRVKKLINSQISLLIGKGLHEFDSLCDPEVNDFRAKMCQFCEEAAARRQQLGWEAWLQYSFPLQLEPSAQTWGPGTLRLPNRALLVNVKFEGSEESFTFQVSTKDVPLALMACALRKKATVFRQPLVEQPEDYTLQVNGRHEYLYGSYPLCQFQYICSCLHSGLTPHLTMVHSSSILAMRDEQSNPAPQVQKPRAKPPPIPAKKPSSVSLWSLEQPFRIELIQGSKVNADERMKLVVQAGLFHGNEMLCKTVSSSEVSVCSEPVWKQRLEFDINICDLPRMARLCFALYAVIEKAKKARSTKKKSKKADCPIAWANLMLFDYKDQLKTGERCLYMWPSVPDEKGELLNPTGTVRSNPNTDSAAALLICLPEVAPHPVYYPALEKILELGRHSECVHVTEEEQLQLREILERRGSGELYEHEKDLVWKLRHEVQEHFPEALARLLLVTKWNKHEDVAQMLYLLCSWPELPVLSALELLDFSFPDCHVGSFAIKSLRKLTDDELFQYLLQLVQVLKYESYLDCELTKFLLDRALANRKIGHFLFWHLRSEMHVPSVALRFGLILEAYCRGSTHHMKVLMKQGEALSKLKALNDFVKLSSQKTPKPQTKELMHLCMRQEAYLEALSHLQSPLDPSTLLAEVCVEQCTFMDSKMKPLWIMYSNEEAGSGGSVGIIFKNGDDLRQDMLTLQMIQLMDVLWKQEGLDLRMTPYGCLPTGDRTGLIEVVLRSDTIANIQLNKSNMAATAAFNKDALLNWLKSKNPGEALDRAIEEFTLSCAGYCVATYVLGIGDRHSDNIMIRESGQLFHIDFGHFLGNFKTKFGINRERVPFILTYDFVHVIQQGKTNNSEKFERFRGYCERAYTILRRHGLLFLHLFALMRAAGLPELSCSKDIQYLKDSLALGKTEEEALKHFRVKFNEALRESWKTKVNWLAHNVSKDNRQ
The experiment is classed as cell-based, Sf9.
Description: Inhibition of N-terminal His-tagged human p110delta expressed in Sf9 cells co-expressing p85alpha regulatory subunit using phosphatidylinositol substrate and [gamma-33P]-ATP by basic thin layer chromatography technique based lipid kinase assay

Experiment [2] concerns the target Phosphatidylinositol 4,5-bisphosphate 3-kinase catalytic subunit alpha isoform (Homo sapiens, UniProt P42336). The format is cell-based, Sf9.
Description: Inhibition of N-terminal His-tagged human p110alpha expressed in Sf9 cells co-expressing p85alpha regulatory subunit using phosphatidylinositol substrate and [gamma-33P]-ATP by basic thin layer chromatography technique based lipid kinase assay
The nature of experiment [3]: Inhibition of cell proliferation of human NZOV9 cells containing wild-type p53 protein and p110alpha Y1021C mutant incubated for 5 days by [3H]thymidine incorporation assay. The format is functional, cell-based. On the technique in general: Incorporation of labelled thymidine or its analogues reports DNA synthesis.
The target in experiment [4] is Phosphatidylinositol 4,5-bisphosphate 3-kinase catalytic subunit beta isoform (Homo sapiens, UniProt P42338). The experiment is classed as cell-based, Sf9.
Sequence of Phosphatidylinositol 4,5-bisphosphate 3-kinase catalytic subunit beta isoform (P42338 whole entry, canonical isoform): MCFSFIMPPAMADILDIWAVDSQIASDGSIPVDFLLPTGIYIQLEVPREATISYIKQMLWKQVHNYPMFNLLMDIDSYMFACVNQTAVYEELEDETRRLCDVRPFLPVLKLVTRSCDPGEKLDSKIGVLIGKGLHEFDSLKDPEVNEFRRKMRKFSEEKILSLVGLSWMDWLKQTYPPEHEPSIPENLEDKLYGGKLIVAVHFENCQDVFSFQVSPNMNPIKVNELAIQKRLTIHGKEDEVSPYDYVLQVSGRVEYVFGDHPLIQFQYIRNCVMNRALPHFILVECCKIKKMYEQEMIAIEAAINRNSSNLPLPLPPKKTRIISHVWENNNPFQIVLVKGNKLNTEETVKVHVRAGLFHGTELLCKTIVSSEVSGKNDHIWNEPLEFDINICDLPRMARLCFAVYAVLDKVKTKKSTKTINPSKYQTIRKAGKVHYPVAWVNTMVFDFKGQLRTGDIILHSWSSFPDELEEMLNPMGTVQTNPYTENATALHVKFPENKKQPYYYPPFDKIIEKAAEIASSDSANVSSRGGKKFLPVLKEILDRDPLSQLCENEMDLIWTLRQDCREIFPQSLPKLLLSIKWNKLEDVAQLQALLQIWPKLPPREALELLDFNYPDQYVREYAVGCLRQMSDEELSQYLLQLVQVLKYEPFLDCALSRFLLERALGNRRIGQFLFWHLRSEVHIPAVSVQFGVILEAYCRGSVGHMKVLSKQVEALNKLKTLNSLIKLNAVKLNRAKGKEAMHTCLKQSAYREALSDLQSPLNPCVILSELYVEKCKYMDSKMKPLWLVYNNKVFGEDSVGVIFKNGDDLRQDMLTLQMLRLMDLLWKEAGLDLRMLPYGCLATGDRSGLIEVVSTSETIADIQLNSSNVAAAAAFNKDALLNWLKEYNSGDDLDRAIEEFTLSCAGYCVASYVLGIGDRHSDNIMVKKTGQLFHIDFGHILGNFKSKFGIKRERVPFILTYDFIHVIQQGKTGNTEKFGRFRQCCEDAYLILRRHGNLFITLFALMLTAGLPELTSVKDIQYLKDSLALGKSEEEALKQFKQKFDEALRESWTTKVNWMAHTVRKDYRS
Description: Inhibition of N-terminal His-tagged human p110beta expressed in Sf9 cells co-expressing p85alpha regulatory subunit using phosphatidylinositol substrate and [gamma-33P]-ATP by basic thin layer chromatography technique based lipid kinase assay
A short description of experiment [5]: Inhibition of cell proliferation of human NZB5 cells containing wild-type p110alpha gene incubated for 5 days by [3H]thymidine incorporation assay. The experiment is classed as functional, cell-based.

Sequence of Phosphatidylinositol 4,5-bisphosphate 3-kinase catalytic subunit alpha isoform (P42336 whole entry, canonical isoform): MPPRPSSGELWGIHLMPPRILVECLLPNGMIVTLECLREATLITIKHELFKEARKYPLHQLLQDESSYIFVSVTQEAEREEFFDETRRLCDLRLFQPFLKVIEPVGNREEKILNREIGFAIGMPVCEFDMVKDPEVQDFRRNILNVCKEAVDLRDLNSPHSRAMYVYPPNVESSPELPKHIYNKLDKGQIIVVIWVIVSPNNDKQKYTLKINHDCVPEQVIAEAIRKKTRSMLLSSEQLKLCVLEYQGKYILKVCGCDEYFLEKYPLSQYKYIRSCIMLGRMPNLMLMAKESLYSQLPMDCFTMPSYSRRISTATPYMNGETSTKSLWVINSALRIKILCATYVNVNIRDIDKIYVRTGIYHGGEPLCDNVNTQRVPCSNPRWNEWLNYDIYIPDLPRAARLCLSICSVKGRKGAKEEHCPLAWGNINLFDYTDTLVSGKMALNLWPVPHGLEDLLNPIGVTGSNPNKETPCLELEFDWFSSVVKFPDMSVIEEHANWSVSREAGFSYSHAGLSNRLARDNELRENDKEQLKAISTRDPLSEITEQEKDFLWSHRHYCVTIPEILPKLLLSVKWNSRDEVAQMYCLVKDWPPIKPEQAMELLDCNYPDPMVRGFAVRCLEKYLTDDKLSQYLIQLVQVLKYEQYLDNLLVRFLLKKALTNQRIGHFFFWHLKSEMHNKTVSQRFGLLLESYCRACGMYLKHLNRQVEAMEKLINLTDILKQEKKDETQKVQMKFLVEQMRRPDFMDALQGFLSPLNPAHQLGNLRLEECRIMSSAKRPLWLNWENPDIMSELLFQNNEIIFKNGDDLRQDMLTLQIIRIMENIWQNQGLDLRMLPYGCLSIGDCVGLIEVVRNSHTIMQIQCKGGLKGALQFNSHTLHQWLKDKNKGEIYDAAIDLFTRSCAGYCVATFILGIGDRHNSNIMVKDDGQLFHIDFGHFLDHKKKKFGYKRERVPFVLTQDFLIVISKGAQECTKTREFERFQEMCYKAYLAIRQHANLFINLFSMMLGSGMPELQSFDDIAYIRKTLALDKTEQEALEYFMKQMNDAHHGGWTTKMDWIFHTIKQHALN

As to `O=C(NCc1cccnc1)c1cccn2c(=O)cc(N3CCOCC3)nc12`, the IC50 – broadly, the concentration needed to halve the response being measured – in experiment [1] is above 10000 nM; in experiment [2], 6500 nM; in experiment [3] it was above 20000 nM; in experiment [4], above 10000 nM; in experiment [5], 18000 nM.

For `Cc1cc(NCc2cccnc2)c2nc(N3CCOCC3)cc(=O)n2c1`, the half-maximal inhibitory concentration (IC50) in experiment [1] is 450 nM; in experiment [2], above 10000 nM; in experiment [3], 7900 nM; in experiment [4], 590 nM; in experiment [5], 8200 nM.

Regarding `Cc1cccc(C(=O)Nc2cccn3c(=O)cc(N4CCOCC4)nc23)c1`, the concentration for half-maximal inhibition (IC50) in experiment [1] is 470 nM; in experiment [2], 570 nM; in experiment [3], 800 nM; in experiment [4] it was 1800 nM; in experiment [5], 6000 nM.

As for `Cc1ccc(CNc2cc(C)cn3c(=O)cc(N4CCOCC4)nc23)cc1`, the IC50 in experiment [1] was 640 nM; in experiment [2], 900 nM; in experiment [3], above 20000 nM; in experiment [4], 1800 nM; in experiment [5], 400 nM.

For the molecule `Cc1ccccc1C(=O)Nc1cccn2c(=O)cc(N3CCOCC3)nc12`, the IC50 was 270 nM in experiment [1]; 810 nM in experiment [2]; 800 nM in experiment [3]; 2400 nM in experiment [4]; 5500 nM in experiment [5].

Consider `O=c1cc(N2CCOCC2)nc2c(CNc3ccc(Cl)cc3)cccn12`, for which the IC50 is 1100 nM in experiment [1]; 3100 nM in experiment [2]; 15000 nM in experiment [3]; 310 nM in experiment [4]; above 20000 nM in experiment [5].

For the molecule `Cc1ccc(NCc2cccn3c(=O)cc(N4CCOCC4)nc23)cc1`, the half-inhibitory concentration (IC50) was found to be 710 nM in experiment [1]; 6800 nM in experiment [2]; 5800 nM in experiment [3]; 4600 nM in experiment [4]; 5500 nM in experiment [5].

Consider `Cc1cccc(NCc2cccn3c(=O)cc(N4CCOCC4)nc23)c1`, for which the half-inhibitory concentration (IC50) in experiment [1] was determined as 810 nM; in experiment [2], 1100 nM; in experiment [4] it was 240 nM; in experiment [5] it was 3000 nM.

In the case of `Cc1ccc(S(=O)(=O)NCc2cccn3c(=O)cc(N4CCOCC4)nc23)cc1`, the IC50 in experiment [1] was 600 nM; in experiment [2], 6500 nM; in experiment [3], above 20000 nM; in experiment [4], 7400 nM; in experiment [5], 18000 nM.

Consider `Cc1cc(Nc2ccccc2C)c2nc(N3CCOCC3)cc(=O)n2c1`, for which the half-maximal inhibitory concentration (IC50) in experiment [1] worked out at 310 nM; in experiment [2], 1500 nM; in experiment [3], 2200 nM; in experiment [4], 1100 nM.

For `O=c1cc(N2CCOCC2)nc2c(CS(=O)(=O)c3ccccc3)cccn12`, the half-maximal inhibitory concentration (IC50) in experiment [1] is above 10000 nM; in experiment [2], above 10000 nM; in experiment [3] it was above 20000 nM; in experiment [4], 4800 nM; in experiment [5] it was above 20000 nM.

As for `Cc1cccc(CNc2cc(C)cn3c(=O)cc(N4CCOCC4)nc23)c1`, the IC50 in experiment [1] is 200 nM; in experiment [2] it was 400 nM; in experiment [3] it was 1300 nM; in experiment [4], 130 nM; in experiment [5] it was 400 nM.

For the molecule `Cc1cc(C(C)Nc2ccccc2)c2nc(N3CCOCC3)cc(=O)n2c1` (racemic), the IC50 was 140 nM in experiment [1], 1000 nM in experiment [2], 1200 nM in experiment [3] and 2800 nM in experiment [5].

In the case of `Cc1ccc(OCc2cccn3c(=O)cc(N4CCOCC4)nc23)cc1`, the IC50 in experiment [1] came out at 550 nM; in experiment [2], 2500 nM; in experiment [3] it was 8200 nM; in experiment [4] it was 1000 nM; in experiment [5], 13000 nM.

Consider `Cc1cc(Nc2ccccc2)c2nc(N3CCOCC3)cc(=O)n2c1`, for which the IC50 in experiment [1] was 410 nM; in experiment [2], 1700 nM; in experiment [3], 3000 nM; in experiment [4], 450 nM; in experiment [5], 1200 nM.

With `O=C(NCc1ccncc1)c1cccn2c(=O)cc(N3CCOCC3)nc12`, the half-inhibitory concentration (IC50) is above 10000 nM in experiment [1]; 6400 nM in experiment [2]; above 20000 nM in experiment [3]; above 10000 nM in experiment [4]; 12000 nM in experiment [5].

Regarding `Cc1ccccc1NC(=O)c1cccn2c(=O)cc(N3CCOCC3)nc12`, the IC50 is 530 nM in experiment [1]; 1800 nM in experiment [2]; 11000 nM in experiment [3]; 1500 nM in experiment [4]; above 20000 nM in experiment [5].

As for `Cc1cc(NCc2ccccc2)c2nc(N3CCOCC3)cc(=O)n2c1`, the concentration for half-maximal inhibition (IC50) in experiment [1] amounted to 230 nM; in experiment [2] it was 500 nM; in experiment [3] it was 500 nM; in experiment [4] it was 150 nM; in experiment [5] it was 100 nM.

For `O=C(NCc1ccccn1)c1cccn2c(=O)cc(N3CCOCC3)nc12`, the IC50 in experiment [1] was above 10000 nM; in experiment [2] it was 4800 nM; in experiment [3] it was above 20000 nM; in experiment [4], above 10000 nM; in experiment [5], 20000 nM.

As for `O=c1cc(N2CCOCC2)nc2c(COc3ccccc3)cccn12`, the half-inhibitory concentration (IC50) in experiment [1] worked out at 470 nM; in experiment [2], 1500 nM; in experiment [3], 11000 nM; in experiment [4] it was 230 nM; in experiment [5], 17000 nM.

In the case of `Cc1cc(N[C@@H](C)c2ccccc2)c2nc(N3CCOCC3)cc(=O)n2c1`, the IC50 stood at 270 nM in experiment [1]; 2200 nM in experiment [2]; 600 nM in experiment [3]; 210 nM in experiment [4]; 700 nM in experiment [5].

Regarding `CN(Cc1cccn2c(=O)cc(N3CCOCC3)nc12)c1ccccc1`, the IC50 in experiment [1] was 270 nM; in experiment [2], 790 nM; in experiment [3], 10000 nM; in experiment [4], 30 nM; in experiment [5], 12000 nM.

On to `Cc1cc(Nc2c(C)cccc2C)c2nc(N3CCOCC3)cc(=O)n2c1`, for which the IC50 in experiment [1] turned out to be 500 nM; in experiment [2], 3900 nM; in experiment [3], 1300 nM; in experiment [4] it was 2100 nM; in experiment [5], 1500 nM.

With `O=C(Nc1cccn2c(=O)cc(N3CCOCC3)nc12)Oc1ccccc1`, the IC50 in experiment [1] amounted to 1800 nM; in experiment [2] it was 9000 nM; in experiment [3], 2500 nM; in experiment [4] it was 9100 nM; in experiment [5], 7000 nM.

In the case of `O=c1cc(N2CCOCC2)nc2c(NS(=O)(=O)c3ccccc3)cccn12`, the IC50 in experiment [1] is 1700 nM; in experiment [2], above 10000 nM; in experiment [3], 500 nM; in experiment [4], above 10000 nM; in experiment [5] it was 6000 nM.

For `Cc1ccc(C(=O)Nc2cccn3c(=O)cc(N4CCOCC4)nc23)cc1`, the 50% inhibitory concentration (IC50) in experiment [1] amounted to 30 nM; in experiment [2], 1360 nM; in experiment [3] it was 800 nM; in experiment [4], 1900 nM; in experiment [5] it was 900 nM.

With `Cc1cc(NCc2ccccc2C)c2nc(N3CCOCC3)cc(=O)n2c1`, the IC50 in experiment [3] is 5000 nM; in experiment [4], 20 nM; in experiment [5], 1500 nM.

Turning to `COc1ccc(NCc2cccn3c(=O)cc(N4CCOCC4)nc23)cc1`, the 50% inhibitory concentration (IC50) in experiment [1] amounted to 240 nM; in experiment [2], 350 nM; in experiment [3], 9600 nM; in experiment [4], 2100 nM; in experiment [5], 340 nM.

In the case of `Cc1cc(C(C)N(C)c2ccccc2)c2nc(N3CCOCC3)cc(=O)n2c1` (racemic), the IC50 in experiment [1] amounted to 220 nM; in experiment [2], 1500 nM; in experiment [4] it was 20 nM.

Consider `Cc1cc(NCc2ccccn2)c2nc(N3CCOCC3)cc(=O)n2c1`, for which the half-maximal inhibitory concentration (IC50) in experiment [1] turned out to be 800 nM; in experiment [2], 2000 nM; in experiment [3] it was 7000 nM; in experiment [4] it was 420 nM; in experiment [5], 2400 nM.

As for `O=C(Nc1ccccc1)Nc1cccn2c(=O)cc(N3CCOCC3)nc12`, the IC50 is 480 nM in experiment [1]; 600 nM in experiment [2]; 2900 nM in experiment [3]; 630 nM in experiment [4]; 7200 nM in experiment [5].

For `Cc1ccc(NC(=O)c2cccn3c(=O)cc(N4CCOCC4)nc23)cc1`, the IC50 in experiment [1] was 140 nM; in experiment [2] it was 1200 nM; in experiment [3], above 20000 nM; in experiment [4] it was above 10000 nM; in experiment [5] it was above 20000 nM.

As for `O=c1cc(N2CCOCC2)nc2c(CNc3ccccc3)cccn12`, the figures for the IC50 in experiment [1], in experiment [2] and in experiment [4] were 470 nM, 1100 nM and 30 nM, respectively.

For `Cc1ccccc1NCc1cccn2c(=O)cc(N3CCOCC3)nc12`, the concentration for half-maximal inhibition (IC50) was 470 nM in experiment [1], 1800 nM in experiment [2] and 20 nM in experiment [4].

For the origin of these results see ChEMBL document CHEMBL3585342, “Exploring the isoform selectivity of TGX-221 related pyrido[1,2-a]pyrimidinone-based Class IA PI 3-kinase inhibitors: synthesis, biological evaluation and molecular modelling” (Bioorg Med Chem, 2015).
